Experimental data: US10544110B2, “Small molecule inhibitors of the nuclear translocation of androgen receptor for the treatment of castration-resistant prostate cancer” (University of Pittsburgh-Of the Commonwealth System of …, priority 2013, dated 2020)
Values joined by “and” are separate entries in the source; they are usually repeats but may differ in a detail not shown here. Equal values may be shown once.

System: AR transcriptional activity (PSA promoter activity)
Experiment: PSA luciferase assay in C4-2-PSA-rl cells (Dual-Glo luciferase system)
Settings: for IC50 / activity in PSA luciferase assay (in words): C4-2-PSA-rl cells; for IC50: 24 h treatment, 1 nM R1881, mean and SD of 2-6 independent experiments; for activity in PSA luciferase assay (in words): up to 25 μM

| Compound | IC50 (24 h) | activity in PSA luciferase assay (in words) | IC50 | increase in activity relative to amide 5b (amine 6 vs amide 5b) |
| --- | --- | --- | --- | --- |
| Cc1ccccc1N1CCN(C(=O)[C@H]2C[C@@H]2c2ccccc2)CC1 (racemic) [Compound 16, ((1SR,2SR)-2-Phenylcyclopropyl)(4-(o-tolyl)piperazin-1-yl)methanone] | > 25 µM | essentially inactive | – | – |
| Cc1noc(C)c1CSCC(=O)N1CCN(c2ccccc2)CC1 [Compound 5a, 2-(((3,5-Dimethylisoxazol-4-yl)methyl)thio)-1-(4-phenylpiperazin-1-yl)ethanone] | > 25 µM | deleted activity | – | – |
| Cc1ccccc1N1CCN(C(=O)CSCc2c(C)noc2C)CC1 [Compound 5b, 2-(((3,5-Dimethylisoxazol-4-yl)methyl)thio)-1-(4-(o-tolyl)piperazin-1-yl)ethanone] | 14.5 µM | – | – | – |
| Cc1cccc(N2CCN(C(=O)CSCc3c(C)noc3C)CC2)c1 [Compound 5c, 2-(((3,5-Dimethylisoxazol-4-yl)methyl)thio)-1-(4-(m-tolyl)piperazin-1-yl)ethanone] | > 25 µM | loss of activity | – | – |
| Cc1ccc(N2CCN(C(=O)CSCc3c(C)noc3C)CC2)cc1 [Compound 5d, 2-(((3,5-Dimethylisoxazol-4-yl)methyl)thio)-1-(4-(p-tolyl)piperazin-1-yl)ethanone] | > 25 µM | loss of activity | – | – |
| Cc1noc(C)c1CSCC(=O)N1CCN(c2ccccc2C#N)CC1 [Compound 5e, 2-(4-(2-(((3,5-Dimethylisoxazol-4-yl)methyl)thio)acetyl)piperazin-1-yl)benzonitrile] | 12 to 13 µM | – | 12 ± 1.6 µM | – |
| Cc1noc(C)c1CSCC(=O)N1CCN(c2ccccc2F)CC1 [Compound 5f, 2-(((3,5-Dimethylisoxazol-4-yl)methyl)thio)-1-(4-(2-fluorophenyl)piperazin-1-yl)ethan-1-one] | 12 to 13 µM | – | 12.6 ± 7.7 µM | – |
| Cc1noc(C)c1CSCC(=O)N1CCN(c2cccc3ccccc23)CC1 [Compound 5g, 2-(((3,5-Dimethylisoxazol-4-yl)methyl)thio)-1-(4-(naphthalen-1-yl)piperazin-1-yl)ethanone] | 11.1 µM | – | – | – |
| COc1ccccc1N1CCN(C(=O)CSCc2c(C)noc2C)CC1 [Compound 5h, 2-(((3,5-Dimethylisoxazol-4-yl)methyl)thio)-1-(4-(2-methoxyphenyl)piperazin-1-yl)ethanone] | > 25 µM | complete loss of activity | – | – |
| Cc1ccccc1N(C)CCN(C)C(=O)CSCc1c(C)noc1C [Compound 5i, 2-(((3,5-Dimethylisoxazol-4-yl)methyl)thio)-N-methyl-N-(2-(methyl(o-tolyl)amino)ethyl) acetamide] | 18.4 µM | – | – | – |
| Cc1ccccc1N1CCCN(C(=O)CSCc2c(C)noc2C)CC1 [Compound 5j, 2-(((3,5-Dimethylisoxazol-4-yl)methyl)thio)-1-(4-(o-tolyl)-1,4-diazepan-1-yl)ethan-1-one] | 11.1 µM | – | – | – |
| Cc1ccccc1N1C[C@@H](C)N(C(=O)CSCc2c(C)noc2C)[C@@H](C)C1 [Compound 5k, 1-(2,6-Dimethyl-4-(o-tolyl)piperazin-1-yl)-2-(((3,5-dimethylisoxazol-4-yl)methyl)thio)ethanone] | 3.1 µM | significantly more potent than 1 | – | – |
| Cc1noc(C)c1CSCC(=O)N1C[C@@H](C)N(c2ccccc2)[C@@H](C)C1 [Compound 5l, 1-(3,5-Dimethyl-4-phenylpiperazin-1-yl)-2-(((3,5-dimethylisoxazol-4-yl)methyl)thio)ethan-1-one] | 15 to 17 µM | – | 14.7 ± 4.4 µM | – |
| Cc1cccc(N2[C@H](C)CN(C(=O)CSCc3c(C)noc3C)C[C@@H]2C)c1 [Compound 5m, 1-(3,5-Dimethyl-4-(m-tolyl)piperazin-1-yl)-2-(((3,5-dimethylisoxazol-4-yl)methyl)thio)ethan-1-one] | 15 to 17 µM | – | 16.6 ± 4.8 µM | – |
| Cc1ccccc1N1CCN(CCSCc2c(C)noc2C)CC1 [Compound 6, 3,5-Dimethyl-4-(((2-(4-(o-tolyl)piperazin-1-yl)ethyl)thio)methyl)isoxazole] | 10.8 µM | – | – | 1.3 fold |
| Cc1ccccc1N1CCN(C(=O)CSCc2ccccc2)CC1 [Compound 7, 2-(Benzylthio)-1-(4-(o-tolyl)piperazin-1-yl)ethanone] | 14 µM | – | 13.7 ± 0.8 µM | – |
| Cc1ccccc1N1CCN(C(=O)CCCc2ccccc2)CC1 [Compound 8, 4-Phenyl-1-(4-(o-tolyl)piperazin-1-yl)butan-1-one] | 14 µM | – | 14.4 ± 3.7 µM | – |

| Compound | IC50 (24 h) | activity in PSA luciferase assay (in words) | IC50 | increase in activity relative to amide 5b (amine 6 vs amide 5b) |
| --- | --- | --- | --- | --- |
| Cc1ccccc1N1CCN(C(=O)CSc2ccccc2)CC1 [Compound 9, 2-(Phenylthio)-1-(4-(o-tolyl)piperazin-1-yl)ethan-1-one] | > 25 µM | abolished activity | – | – |
| Cc1ccccc1N1CCN(C(=O)C#Cc2ccccc2)CC1 [Compound 10, 3-Phenyl-1-(4-(o-tolyl)piperazin-1-yl)prop-2-yn-1-one] | 20.3 ± 11.6 µM | essentially inactive | – | – |
| Cc1ccccc1N1CCN(C(=O)/C=C/c2ccccc2)CC1 [Compound 11, (E)-3-Phenyl-1-(4-(o-tolyl)piperazin-1-yl)prop-2-en-1-one] | > 25 µM | essentially inactive | – | – |
| Cc1ccccc1N1CCN(C(=O)C[S+]([O-])Cc2c(C)noc2C)CC1 (centres unmarked) [Compound 12, 2-(((3,5-Dimethylisoxazol-4-yl)methyl)sulfinyl)-1-(4-(o-tolyl)piperazin-1-yl)ethan-1-one] | > 25 µM | inactive | – | – |
| Cc1ccccc1N1CCN(C(=O)CS(=O)(=O)Cc2c(C)noc2C)CC1 [Compound 13, 2-(((3,5-Dimethylisoxazol-4-yl)methyl)sulfonyl)-1-(4-(o-tolyl)piperazin-1-yl)ethan-1-one] | 16.1 µM | – | – | – |
| Cc1ccccc1N1CCN(C(=O)/C=C\c2ccccc2)CC1 [Compound 14, (Z)-3-Phenyl-1-(4-(o-tolyl)piperazin-1-yl)prop-2-en-1-one] | 12.7 µM | – | – | – |
| Cc1ccccc1N1CCN(C(=O)C2CC2c2ccccc2)CC1 (centres unmarked) [Compound 15, (2-Phenylcyclopropyl)(4-(o-tolyl)piperazin-1-yl)methanone] | 2.9 µM | significantly more potent than 1 | – | – |
| Cc1ccccc1N1CCN(C(=O)COCc2c(C)noc2C)CC1 [Compound 18a, 2-((3,5-Dimethylisoxazol-4-yl)methoxy)-1-(4-(o-tolyl)piperazin-1-yl)ethan-1-one] | > 25 µM | abolished activity | – | – |
| Cc1ccccc1N1CCN(C(=O)CN(C)Cc2ccccc2)CC1 [Compound 18b, 2-(Benzyl(methyl)amino)-1-(4-(o-tolyl)piperazin-1-yl)ethanone] | > 25 µM | abolished activity | – | – |
| Cc1ccccc1N1CCN(S(=O)(=O)CSCc2c(C)noc2C)CC1 [Compound 18c, 3,5-Dimethyl-4-(((((4-(o-tolyl)piperazin-1-yl)sulfonyl)methyl)thio)methyl)isoxazole] | 7.2 µM | – | – | – |
| Cc1ccccc1N1CCN(C(=O)NCSCc2c(C)noc2C)CC1 [Compound 20a, N-((((3,5-Dimethylisoxazol-4-yl)methyl)thio)methyl)-4-(o-tolyl)piperazine-1-carboxamide] | > 25 µM | inactive | – | – |
| Cc1ccccc1N1CCC(OC(=O)NCSCc2c(C)noc2C)CC1 [Compound 20b] | > 25 µM | inactive | – | – |
| Cc1ccccc1C1CC2CCC(C1)N2C(=O)CSCc1c(C)noc1C (stereo not drawn) [Compound 26a, 2-(((3,5-Dimethylisoxazol-4-yl)methyl)thio)-1-(3-endo-(o-tolyl)-8-azabicyclo[3.2.1]octan-8-yl)ethanone] | – | – | 8 µM and 7.7 µM | – |
| Cc1ccccc1[C@@H]1C[C@H]2CC[C@@H](C1)N2C(=O)CSCc1c(C)noc1C [Compound 26b] | – | – | 8 µM and 7.9 µM | – |
| Cc1ccc(Cl)cc1N1CCN(C(=O)[C@H]2C[C@H]2c2ccc(F)cc2)CC1 [JJ-450A, (4-(5-chloro-2-methylphenyl)piperazin-1-yl)((1S,2R)-2-(4-fluorophenyl)cyclopropyl)methanone] | 1.6 ± 0.1 µM | significantly more potent than 1 | – | – |
| Cc1ccc(Cl)cc1N1CCN(C(=O)[C@@H]2C[C@@H]2c2ccc(F)cc2)CC1 [JJ-450B, (4-(5-Chloro-2-methylphenyl)piperazin-1-yl)((1R,2S)-2-(4-fluorophenyl)cyclopropyl)-methanone] | 13.1 ± 1.8 µM | – | – | – |
